Laboratory results: patent US7041280B2, “Aryl boronate functionalized polymers for treating obesity” (Genzyme Corporation, priority 2001, dated 2006)

System: fat absorption through lipase inhibition in rats
Details: rats gavaged with 4 mL olive oil emulsion with drug after 18 hour fast, intestinal contents after 8 hours; for In Vivo Infusion Assay in Rats ED50 (mg/g fat) or estimate: dose at half the maximum recoverable triglyceride; for In Vivo Infusion Assay in Rats Ed50 (mg/kg body wt) or estimate: dose per body weight
Method: Compounds were evaluated in rats to determine their in vivo potency in inhibiting fat absorption through lipase inhibition. Rats were acclimated to the facility for approximately 1 week in individual wire-bottom cages and provided a standard chow diet and water ad libitum. […] Test compounds were dissolved in DMSO or deionized water. Drug solutions were mixed thoroughly in the olive oil emulsion just prior to administration. After 8 hours, rats were euthanized with CO2 and the intestines were removed. The intestinal contents were harvested from the lower half of the small intestine and the cecum. Contents were placed in separate, pre-weighed, 15 milliliter conical screw cap tubes in a (dry ice/alcohol bath) to maintain freezing temperature until the final freeze of all samples. Samples were stored at −80° C. until lyophilization.
Samples were freeze-dried and ground, then analyzed for triglyceride and fatty acid.
A 20 milligram aliquot of each sample was weighed and transferred to a 15 milliliters conical tube. 3 milliliters of hexane were added to each tube, which were capped and vortexed for 15 seconds at high speed. 3 milliliters of 1 N HCl were added and the samples were then subjected to wrist-action shaking for 1 hour. Samples were then centrifuged for 5 minutes at 3500 rpm and the hexane layer was collected. An aliquot of the hexane layer was diluted in hexane and analyzed for triglyceride, diglyceride and fatty acid by HPLC as described above.
The data was expressed as follows. The milligrams of intestinal contents that was extracted and the total number of milligrams collected were recorded. The milligrams/milliliters values obtained from the HPLC analysis were entered. The individual lipid components were calculated and expressed as total milligrams recovered. Dose units are expressed as the milligrams of drug per gram of oil administered to each rat. The ED50's were determined by extrapolating the dose value at half the maximum obtainable triglyceride recoverable in the assay.

Substance	In Vivo Infusion Assay in Rats ED50 (mg/g fat) or estimate [mg/g fat]	In Vivo Infusion Assay in Rats Ed50 (mg/kg body wt) or estimate [mg/kg body wt]
Poly(N-diethanolaminopropyl)acrylamide conjugated with 4-(14′-hydroxy-3′-thia-1′-ketotetradecyl)-3-fluorophenylboronic acid [Polymer 5]	50	375
Poly(N-diethanolaminopropyl)acrylamide conjugated with 4-(14′-hydroxy-3′-thia-1′-ketotetradecyl)phenylboronic acid [Polymer 6]	36	270
poly(N-diethanolaminopropyl)acrylamide conjugated with 4-(14′-trimethylammonium-3′-thia-1′-ketotetradecyl)-3-fluorophenylboronic acid bromide [Polymer 1]	3	22.5
poly(N-diethanolaminopropyl)acrylamide conjugated with 4-(14′-trimethylammonium-3′-thia-1′-ketotetradecyl)-3-fluorophenylboronic acid bromide [Polymer 2]	4.5	33.8
poly(N-diethanolaminopropyl)acrylamide conjugated with 4-(14′-trimethylammonium-3′-thia-1′-ketotetradecyl)phenylboronic acid bromide [Polymer 3]	20	150
